Measured values published in US20070148159A1, “Use of crotoxin as an analgesic - CIP” (priority 2005, published 2007).
Structures can show the parent of a compound that is named as a salt.

Key:
mice = type: in vivo, mouse; details: for inhibition of the activity of Crotoxin: summary statement on antagonist studies
[1] = type: in vivo; details: hot-plate model; test end point 180 minutes
[2] = cited from earlier work

| Compound | inhibition of the activity of Crotoxin (mice) | time of maximal effect on hot-plate response [1] [min] | analgesic potency relative to morphine ([2]; halved again when given orally rather than parenterally) | duration of activity ([2]; in vivo) [h] | onset of activity ([2]; in vivo) [min] | effect on Crotoxin-induced analgesia, hotplate test (mice; Atropine 0.25-1 mg/kg, Naloxone 1.25-5 mg/kg) |
| --- | --- | --- | --- | --- | --- | --- |
| CN1[C@@H]2CC[C@H]1C[C@@H](OC(=O)C(CO)c1ccccc1)C2 (stereo partly shown) [Atropine] | failed to inhibit |  |  |  |  |  |
| CCOC(=O)C1(c2ccccc2)CCN(C)CC1 [Dolantin, Meperidine hydrochloride] |  | 30 | one-tenth as potent an analgesic as morphine | 2 to 4 | 10 to 45 |  |
| C=CCN1CC[C@]23c4c5ccc(O)c4O[C@H]2C(=O)CC[C@@]3(O)[C@H]1C5 [Naloxone] | failed to inhibit |  |  |  |  | no effect |
